From patent US11780849B2, “Imino sulfanone inhibitors of ENPP1” (Volastra Therapeutics, Inc., priority 2020, dated 2023)
Like-named read-outs stand apart in the source and are kept apart here.

Target: ENPP-1 ECD (Homo sapiens (Human), UniProt P22413)
Test: Assay 2: inhibition of ENPP1 hydrolysis of 2′,3′-cGAMP (AMP-Glo, […] enzyme)
[1] = Assay 2 (KI), inhibition of ENPP1 hydrolysis of 2′,3′-cGAMP, no unit in Table 18 (Table 17 legend for this assay uses nM)
[2] = read-out: Assay 2 (KI), ENPP1 hydrolysis of 2′,3′-cGAMP, AMP-Glo, […] ENPP-1, 24 μM cGAMP
[3] = read-out: Assay 2 (KI), inhibition of ENPP1 hydrolysis of 2′,3′-cGAMP, no unit in Table 18 (Table 17 legend for this assay uses nM)
[4] = Assay 2 (KI), ENPP1 hydrolysis of 2′,3′-cGAMP, AMP-Glo, […] ENPP-1, 24 μM cGAMP

Chain of ENPP-1 ECD (P22413 98-925): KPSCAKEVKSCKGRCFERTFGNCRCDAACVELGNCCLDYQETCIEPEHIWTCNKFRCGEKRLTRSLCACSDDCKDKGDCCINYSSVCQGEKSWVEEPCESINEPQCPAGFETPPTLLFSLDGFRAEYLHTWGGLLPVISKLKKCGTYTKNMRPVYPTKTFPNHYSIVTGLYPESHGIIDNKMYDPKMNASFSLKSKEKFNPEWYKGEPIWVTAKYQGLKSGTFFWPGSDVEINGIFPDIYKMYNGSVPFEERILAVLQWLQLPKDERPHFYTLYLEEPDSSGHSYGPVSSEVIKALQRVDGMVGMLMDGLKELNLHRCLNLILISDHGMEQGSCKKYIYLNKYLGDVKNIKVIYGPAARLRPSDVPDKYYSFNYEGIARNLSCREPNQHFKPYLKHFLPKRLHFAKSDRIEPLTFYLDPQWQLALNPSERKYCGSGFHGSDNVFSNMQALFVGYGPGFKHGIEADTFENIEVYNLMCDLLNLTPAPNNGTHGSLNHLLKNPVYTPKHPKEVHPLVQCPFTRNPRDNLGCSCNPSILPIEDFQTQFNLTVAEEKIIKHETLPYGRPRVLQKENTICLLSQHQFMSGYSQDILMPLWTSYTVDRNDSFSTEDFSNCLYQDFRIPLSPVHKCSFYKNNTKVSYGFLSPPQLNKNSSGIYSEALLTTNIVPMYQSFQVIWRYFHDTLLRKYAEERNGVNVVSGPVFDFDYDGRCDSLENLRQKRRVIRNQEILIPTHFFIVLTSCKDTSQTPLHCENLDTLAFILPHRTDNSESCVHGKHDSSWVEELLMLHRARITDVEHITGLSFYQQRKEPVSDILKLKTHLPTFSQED
Method: Assay 2: Compared to the conditions in Assay 1, this assay has a larger dynamic range and ensures the system is under steady-state conditions by reducing the enzyme concentration in the assay.
Test compounds were plated in a 3× dilution scheme in a 384 well plate. […] AMP Detection solution (10 μL) was added to each well, the plate centrifuged and incubated for 60 min.

Structure (SMILES) | Ki [1] [nM] | Ki [3] [nM] | other results
COc1ccc2c(OCC3CCS(=N)(=O)CC3)ccnc2c1 (single isomer, unassigned) [Compound 107a, 4-[(1-imino-1-oxido-3,4,5,6-tetrahydro-2H-thiopyran-4-yl)methoxy]-7-methoxy-quinoline] | 27 |  | 
COc1ccc2c(OCC3CCS(=N)(=O)CC3)ccnc2c1 (single isomer, unassigned) [Compound 107b, 4-[(1-imino-1-oxido-3,4,5,6-tetrahydro-2H-thiopyran-4-yl)methoxy]-7-methoxy-quinoline] | 74 |  | 
COc1cc2ncnc(-c3ccc4c(c3)CN([S@@](C)(=N)=O)CC4)c2cc1OC [Compound 37a] |  | 21 | Ki [2]: 3 to 300 nM
COc1ccc2c(-c3ccc4c(c3)CN([S@](C)(=N)=O)CC4)ccnc2c1 [Compound 52a] |  | 110 | Ki [2]: 3 to 300 nM
COc1ccc2c(-c3ccc4c(c3)CN([S@@](C)(=N)=O)CC4)ccnc2c1 [Compound 52b] |  | 3.5 | Ki [2]: 3 to 300 nM
COc1ccc2c(Oc3ccc(S(C)(=N)=O)cc3)ccnc2n1 (stereo not drawn) [Compound 78, imino(4-((7-methoxy-1,8-naphthyridin-4-yl)oxy)phenyl)(methyl)-λ^6-sulfanone] | 150 |  | Ki [4]: 3 to 300 nM
COc1cc2ncnc(N3CCC(CN[S@](C)(=N)=O)CC3)c2cc1OC [Compound 94b] |  | 9 | Ki [2]: 3 to 300 nM
COc1ccc2c(OCC3CCS(=N)(=O)CC3)ccnc2c1 (stereo not drawn) [Compound 107, 4-[(1-imino-1-oxido-3,4,5,6-tetrahydro-2H-thiopyran-4-yl)methoxy]-7-methoxy-quinoline] | 80 |  | 
COCCS(=N)(=O)c1ccc(Oc2ccnc3cc(OC)ccc23)cc1 (stereo not drawn) [Compound 122, imino(2-methoxyethyl){4-[(7-methoxyquinolin-4-yl)oxy]phenyl}-λ^6-sulfanone] | 1.6 |  | Ki [4]: < 3 nM
COc1cc2nccc(N3CCC(CC[S@](C)(=N)=O)CC3)c2cc1Cl [Compound 141b] |  | 31 | Ki [2]: 3 to 300 nM
COc1cc2ncnc(N3CCC(CCCS(C)(=N)=O)CC3)c2cc1OC (stereo not drawn) [Compound 145, {3-[1-(6,7-dimethoxyquinazolin-4-yl)piperidin-4-yl]propyl}(imino)methyl-λ^6-sulfanone] | 8.7 |  | Ki [4]: 3 to 300 nM
COc1cccc2c(N3CCC(C[S@](C)(=N)=O)CC3)ncnc12 [Compound 146b] |  | 66 | 
COc1cc2ncnc(N3CCC(CS(C)(=N)=O)CC3)c2cc1OC (stereo not drawn) [Compound 147, {[1-(6,7-dimethoxyquinazolin-4-yl)piperidin-4-yl]methyl}(imino)methyl-λ^6-sulfanone] | 9.9 |  | Ki [4]: 3 to 300 nM
COc1ccc2c(N3CCC(CS(C)(=N)=O)CC3)ccnc2c1 (stereo not drawn) [Compound 148, imino({[1-(7-methoxyquinolin-4-yl)piperidin-4-yl]methyl})methyl-λ^6-sulfanone] | 56 |  | Ki [4]: 3 to 300 nM
COc1cc2nccc(N3CCC4(CC3)CCN([S@](C)(=N)=O)C4)c2cc1Cl [Compound 156b] |  | 2.9 | Ki [2]: < 3 nM
COc1cc2nccc(N3CCC(CNS(C)(=N)=O)CC3)c2cc1Cl (stereo not drawn) [Compound 157, N-{[1-(6-chloro-7-methoxyquinolin-4-yl)piperidin-4-yl]methyl}methanesulfonoimidamide] | 2.7 |  | Ki [4]: < 3 nM
COc1ccc2c(N3CCC4(CC3)CCN(S(C)(=N)=O)C4)ccnc2n1 (stereo not drawn) [Compound 158, imino[8-(7-methoxy-1,8-naphthyridin-4-yl)-2,8-diazaspiro[4.5]decan-2-yl]methyl-λ^6-sulfanone] | 0.44 |  | Ki [4]: < 3 nM
COc1cc2ncnc(N3CCC4(CC3)CCN([S@@](=N)(=O)C3CC3)C4)c2cc1OC [Compound 160b] |  | 1.7 | 

Structure (SMILES) | Ki [1] [nM] | Ki [3] [nM] | other results
COc1ccc2c(-c3ccc4c(c3)CN(S(C)(=N)=O)CC4)ccnc2n1 (stereo not drawn) [Compound 163, imino[7-(7-methoxy-1,8-naphthyridin-4-yl)-1,2,3,4-tetrahydroisoquinolin-2-yl]methyl-λ^6-sulfanone] | 21 |  | Ki [4]: 3 to 300 nM
COc1cc2ncnc(OCC3CCN(S(C)(=N)=O)CC3)c2cc1OC (stereo not drawn) [Compound 164, (4-{[(6,7-dimethoxyquinazolin-4-yl)oxy]methyl}piperidin-1-yl)(imino)methyl-λ^6-sulfanone] | 97 |  | Ki [4]: 3 to 300 nM
COc1ccc2c(Oc3ccc(S(C)(=N)=O)cc3)ncnc2c1 (stereo not drawn) [Compound 167, imino({4-[(7-methoxyquinazolin-4-yl)oxy]phenyl})methyl-λ^6-sulfanone] | 7.9 |  | 
COc1cc2ncnc(OCC3CCS(=N)(=O)CC3)c2cc1OC (stereo not drawn) [Compound 171, 4-{[(6,7-dimethoxyquinazolin-4-yl)oxy]methyl}-1-imino-1λ^6-thian-1-one] | 49 |  | 
COc1ccc2c(OCc3cncc(S(C)(=N)=O)c3)ccnc2c1 (stereo not drawn) [Compound 172, imino(5-{[(7-methoxyquinolin-4-yl)oxy]methyl}pyridin-3-yl)methyl-λ^6-sulfanone] | 11 |  | 
COc1ccc2c(O[C@H](C)c3cccc(S(C)(=N)=O)c3)ccnc2c1 (stereo partly drawn) [Compound 178, imino({3-[(1R)-1-[(7-methoxyquinolin-4-yl)oxy]ethyl]phenyl})methyl-λ^6-sulfanone] | 2.6 |  | 
COc1cccc2c(N3CCC(CS(C)(=N)=O)CC3)ccnc12 (stereo not drawn) [Compound 180, imino({[1-(8-methoxyquinolin-4-yl)piperidin-4-yl]methyl})methyl-λ^6-sulfanone] | 16 |  | 
COc1cccc2c(N3CCC(CS(C)(=N)=O)CC3)cnnc12 (stereo not drawn) [Compound 182, imino({[1-(8-methoxycinnolin-4-yl)piperidin-4-yl]methyl})methyl-λ^6-sulfanone] | 3.1 |  | 
COc1cc(F)cc2c(N3CCC(CS(C)(=N)=O)CC3)ncnc12 (stereo not drawn) [Compound 183, {[1-(6-fluoro-8-methoxyquinazolin-4-yl)piperidin-4-yl]methyl}(imino)methyl-λ^6-sulfanone] | 5.2 |  | 
COc1cc2nccc(NCc3cccc(S(C)(=N)=O)c3)c2cc1F (stereo not drawn) [Compound 192, (3-{[(6-fluoro-7-methoxyquinolin-4-yl)amino]methyl}phenyl)(imino)methyl-λ^6-sulfanone] |  | 0.58 | 
COc1cccc2c(N3CCC(O)(CS(C)(=N)=O)C4(CC4)C3)ncnc12 (stereo not drawn) [Compound 194, {[8-hydroxy-5-(8-methoxyquinazolin-4-yl)-5-azaspiro[2.5]octan-8-yl]methyl}(imino)methyl-λ^6-sulfanone] | 40 |  | 
CCS(=N)(=O)CC1(O)CCN(c2ncnc3c(OC)cccc23)CC1 (stereo not drawn) [Compound 195, ethyl({[4-hydroxy-1-(8-methoxyquinazolin-4-yl)piperidin-4-yl]methyl})imino-λ^6-sulfanone] | 0.2 |  | 
COc1cccc2c(N3CCC(CS(C)(=N)=O)CC3)c(F)cnc12 (stereo not drawn) [Compound 202, {[1-(3-fluoro-8-methoxyquinolin-4-yl)piperidin-4-yl]methyl}(imino)methyl-λ^6-sulfanone] | 370 |  | 
COc1ccc(F)c2c(N3CCC(CS(C)(=N)=O)CC3)c(C#N)cnc12 (stereo not drawn) [Compound 203, 5-fluoro-4-(4-{[imino(methyl)oxo-λ^6-sulfanyl]methyl}piperidin-1-yl)-8-methoxyquinoline-3-carbonitrile] | 1.7 |  | 
COc1cc2nccc(-c3cccc(CCS(C)(=N)=O)c3)c2cc1OC (stereo not drawn) [Compound 204, {2-[3-(6,7-dimethoxyquinolin-4-yl)phenyl]ethyl}(imino)methyl-λ^6-sulfanone] | 28 |  | 
COc1cc2ncnc(N3CC4(CCN(S(C)(=N)=O)CC4)C3)c2cc1OC (stereo not drawn) [Compound 206, [2-(6,7-dimethoxyquinazolin-4-yl)-2,7-diazaspiro[3.5]nonan-7-yl](imino)methyl-λ^6-sulfanone] | 17 |  | 
COc1cc2ncnc(N3CCC4(CC3)CCN(S(C)(=N)=O)CC4)c2cc1OC (stereo not drawn) [Compound 209, [9-(6,7-dimethoxyquinazolin-4-yl)-3,9-diazaspiro[5.5]undecan-3-yl](imino)methyl-λ^6-sulfanone] | 17 |  | 

Now from value to molecule, other results behind:

Ki [1] [nM] | Ki [3] [nM] | Structure (SMILES) | other results
 | 0.64 | COc1cc2nccc(-c3ccc4c(c3)CN([S@](C)(=N)=O)CC4)c2cc1OC [Compound 161b] | Ki [2]: < 3 nM
 | 4.1 | COc1cc2nccc(OCc3cccc([S@@](C)(=N)=O)c3)c2cc1OC [Compound 175b] | 
 | 20 | COc1ccc2c(OCc3cc(F)cc([S@@](C)(=N)=O)c3)ccnc2c1 [Compound 177a] | 
 | 34 | COc1ccc2c(O[C@H](C)c3cccc([S@](C)(=N)=O)c3)ccnc2c1 [Compound 178b] | 
 | 9.1 | COc1cccc2c(N3CCC(C[S@@](C)(=N)=O)CC3)c(C#N)cnc12 [Compound 179a] | 
 | 2.9 | COc1cc(F)cc2c(N3CCC(C[S@@](C)(=N)=O)CC3)ncnc12 [Compound 183a] | 
 | > 150 | COc1cc(F)cc2c(N3CCC(CS(C)(=N)=O)CC3)ncnc12 (stereo not drawn) [Compound 183b] | 
 | 2.8 | COc1cccc2c(N3CCC(O)(C[S@](C)(=N)=O)CC3)ncnc12 [Compound 185b] | 
 | 8.8 | COc1cccc2c(N3CCC(C[S@@](=N)(=O)C4CC4)CC3)c(C#N)cnc12 [Compound 189a] | 
 | 54 | COc1cccc2c(N3CCC(O)(C[S@@](=N)(=O)C4CC4)CC3)ncnc12 [Compound 193a] | 
 | 0.052 | CC[S@@](=N)(=O)CC1(O)CCN(c2ncnc3c(OC)cccc23)CC1 [Compound 195a] | 
 | 7.7 | CC[S@](=N)(=O)CC1(O)CCN(c2ncnc3c(OC)cccc23)CC1 [Compound 195b] | 
 | 1.2 | COc1cccc2c(N3CCC(O)(C[S@](C)(=N)=O)CC3)c(C#N)cnc12 [Compound 198b] | 
 | 5 | COc1cc2nccc(N3CCC4(CC3)CCN([S@](C)(=N)=O)C4)c2cc1F [Compound 205a] | 
 | 0.5 | COc1cc2nncc(N3CCC4(CC3)CCN([S@@](C)(=N)=O)C4)c2cc1OC [Compound 211b] | 
